Positions of bridges follow the written chain, without caps; N, C: chain ends. Chains are numbered I, II in the order given. No end group written: not given here.
Experiments:
[1] = in vivo
Text: (§1) It is important to note that during and after drug administration there was no change in mouse weight or behavior, indicating no overt toxicity related to treatment.

[2] = tested on: serum cytokines and chemokines; details: mouse, in vivo
Description: To determine whether the responses in serum proteins would be different in tumor-bearing mice from those in healthy mice, sera were collected from female mice in which breast cancer 4T1 cells had been implanted. After the tumors had grown over a period of 10 to 12 days to a size of ˜500 mm^3, tetravalent svL4 was injected subcutaneously at doses of 0.1 and 1.0 nmol/g. Blood was withdrawn and sera prepared 4 hours after injection. The sera of untreated animals had low levels of cytokines and chemokines at 4 h. With a few proteins, such as IL-1β, IL-2, IL-6 and TNFα, the values were very low in untreated animals and upon treatment with svL4 were increased but still nearly undetectable on the array blots. […] Several cytokines that increased but were still low in amount included GM-CSF, CCL4, IGFBP-1, IL-21, lymphotoxin-α, and IL-17. Major proteins included CCL1, CCL8, CCL28, Endostatin, Fas, HVEM, IL-11, IL-12p70, IL-16, IL-27, IL-28, MIP-2, MMP-9, NOV, Soggy-1, SPARC, TIMP-2, TLR2 and VEGF-B. In some cases, the higher dose caused a higher amount of the protein, whereas with several proteins the amount was lower with the higher dose. […] A number of soluble proteins were identified as cell-surface receptors, such as Fas, HVEM and TLR2, which indicated significant shedding by activated cells. […]

[3] = design: species or system mice
Text: as §1

Substance: I: VQATQSNQHTPRGGGSKK-NH2 / II: VQATQSNQHTPRGGGSK / III: VQATQSNQHTPRGGGS / IV: VQATQSNQHTPRGGGS (amide I:17-IV:C, I:18-II:C, II:17-III:C) [svL4, [(VQATQSNQHTPRGGGS)2K]2K—NH2]
- change in mouse weight or behavior (overt toxicity) [1]: no change
- irritation or formation of fibrous or granulomatous tissue at injection region ([1]; mouse): no apparent irritation
- pattern typical of a toxic "cytokine storm" [2]: did not occur
- binding of peptides to sera (antigenicity) [3]: negative
